Data from paper PMC11111691, “Cystine-knot peptide inhibitors of HTRA1 bind to a cryptic pocket within the active site region” (Nature Communications, 2024).
Positions of bridges follow the written chain, without caps; N, C: chain ends. Residues, ends and D or L forms follow the SMILES beside them.

How the values were obtained:
HTRA1^FL = molecular target: T1, HTRA1^FL (Homo sapiens, UniProt Q92743); test: HTRA1^FL enzyme inhibition assay with synthetic substrate H2-OPT; type: biochemical
T1 construct: Human full-length HTRA1 (HTRA1^FL, Q23-P480); made in house; host or cells: Trichoplusia ni cells
Protocol: Assays with the fluorescence-quenched synthetic substrate Mca-IRRVSYSFK(Dnp)K (H2-OPT)[38],[60] were carried out essentially as described. CKP stock solutions in DMSO were diluted in TNC buffer (dilution series for IC50 determinations, or final concentration of 2 µM for selectivity assay or as indicated for HTRA1/4 mutants) and incubated with enzymes in 96-well black optical bottom plates for 60 min at 37 °C. For selectivity experiments we used the 7mer-ABP as inhibitor, which was incubated with the proteases for 15 min at 37 °C. A 10 mM stock solution of H2-OPT in DMSO was diluted with water, prewarmed at 37 °C and then added to the CKP-enzyme mixtures. The final concentrations in the reaction mixtures were: 1 nM HTRA1^FL, 3 nM HTRA1^PD/PDZ, 1 nM HTRA1^PD, 1 nM HTRA2^PD/PDZ, 3 nM HTRA3^FL, 60 nM HTRA3^PD/PDZ, 6 nM HTRA4^FL, 1 µM HTRA4^PD/PDZ, 1 nM mouse HTRA1^PD, 25 nM HTRA1^PD-A202Y, 1 µM HTRA4^PD/PDZ-Y200A, 0.5 mM 7mer-ABP, 5 µM H2-OPT, and 0.25% DMSO. The kinetics of substrate cleavage was measured at 37 °C on a SpectraMax M5 microplate reader with excitation of 328 nm and emission of 393 nm. The determined initial rates of cleavage were expressed as percent of control (DMSO control) after subtracting the baseline rates (without enzyme). IC50 values were determined by Sigmoidal 4PL modeling of multiple data points from serial dilutions of CKPs using Prism 9 software (GraphPad). For selectivity assays with HTRA1-4^PD/PDZ constructs, the specific activities of the enzymes and enzyme:CKP inhibitor ratios were as follows: HTRA1^PD/PDZ, 12560 mRFU/min/nM – 1:667; HTRA2^PD/PDZ, 32300 mRFU/min/nM – 1:2000; HTRA3^PD/PDZ, 962 mRFU/min/nM – 1:33; HTRA4^PD/PDZ, 18 mRFU/min/nM – 1:2.

HTRA1^PD(SA) = molecular target: T2, HTRA1^PD(SA) (Homo sapiens, UniProt Q92743, S328A); test: SPR binding kinetics to HTRA1^PD(SA); details: mean ± S.D. of three or more independent experiments; for koff / kon: SPR Biacore S200, 25 °C, single cycle kinetics, 1:1 Langmuir model; for Kd: SPR, calculated from kon and koff, CPI up to 10 µM
T2 construct: The protease domains of human HTRA1 (HTRA1^PD; D161-K379); made in house; host or cells: E. coli
Protocol: Surface plasmon resonance (SPR) experiments were performed using a Biacore S200 instrument at 25 °C. His-tagged HTRA proteins were captured on a CM5 sensor chip using the His-capture kit (GE Healthcare). Protein concentrations used for immobilization were as follows; HTRA1^PD(SA), HTRA1^PD and HTRA1^PD-ABP 2 µg/ml with 60-s injections at 10 µl/min, HTRA2^PD/PDZ, HTRA3^PD/PDZ, and HTRA4^PD/PDZ 4 µg/ml with 60-s injections at 10 µl/min. Approximate immobilization levels of HTRA proteins were as follows; HTRA1^PD(SA) 700 RU, HTRA1^PD 900 RU, HTRA1^PD-ABP 900 RU, HTRA2^PD/PDZ 500 RU, HTRA3^PD/PDZ 500 RU, HTRA4^PD/PDZ 500 RU. All CKPs were prepared in HBS-EP buffer (0.01 M HEPES pH 7.4, 0.15 M NaCl, 3 mM EDTA, 0.005% v/v Surfactant P20). All CKP concentrations were injected for 120 s at a flow rate of 30 μl/min. A reference channel was subtracted from the HTRA-captured channel.
Binding kinetics of peptides to HTRA1^PD(SA) were determined by flowing six serial three-fold dilutions of peptide over the HTRA1^PD(SA) immobilized surface using a single cycle kinetics model. CKP maximum concentrations were as follows: 1A7, 1A8, 1C10, 2D5, and 3A7, 300 nM; 1G10-ENI and 1D3-ENI, 100 nM; 3B3, 3000 nM; and CPI, 10,000 nM. Data were analyzed using GE BIA evaluation software using a 1:1 Langmuir binding model. The KD values, calculated from the determined kon and koff values, were the mean ± S.D. of 3–4 independent experiments.

T2 sequence (Q92743 161-379 S328A): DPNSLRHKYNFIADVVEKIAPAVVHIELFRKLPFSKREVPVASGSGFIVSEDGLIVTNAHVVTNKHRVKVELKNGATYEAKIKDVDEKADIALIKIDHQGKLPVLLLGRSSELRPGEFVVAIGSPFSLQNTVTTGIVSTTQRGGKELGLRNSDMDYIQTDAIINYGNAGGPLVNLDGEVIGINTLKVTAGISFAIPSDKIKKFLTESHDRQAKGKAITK
T1 sequence (Q92743 23-480): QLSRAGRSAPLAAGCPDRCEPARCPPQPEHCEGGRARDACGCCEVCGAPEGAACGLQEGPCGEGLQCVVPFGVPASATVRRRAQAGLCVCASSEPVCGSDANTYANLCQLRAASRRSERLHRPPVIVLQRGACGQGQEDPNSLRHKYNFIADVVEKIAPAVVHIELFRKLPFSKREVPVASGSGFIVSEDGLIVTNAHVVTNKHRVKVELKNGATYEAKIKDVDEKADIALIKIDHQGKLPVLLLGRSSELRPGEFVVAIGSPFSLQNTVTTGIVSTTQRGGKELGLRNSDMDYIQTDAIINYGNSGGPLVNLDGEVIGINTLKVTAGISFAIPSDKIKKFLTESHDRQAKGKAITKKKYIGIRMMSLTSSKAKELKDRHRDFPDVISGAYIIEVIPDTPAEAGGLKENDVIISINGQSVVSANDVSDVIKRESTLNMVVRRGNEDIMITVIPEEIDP

Compound | IC50 (HTRA1^FL) | koff (HTRA1^PD(SA)) | kon (HTRA1^PD(SA)) | Kd (HTRA1^PD(SA))
CC[C@H](C)[C@H](NC(=O)[C@H](CCC(N)=O)NC(=O)[C@H](CCCNC(=N)N)NC(=O)[C@H](CC(C)C)NC(=O)CNC(=O)[C@H](Cc1c[nH]c2ccccc12)NC(=O)CNC(=O)[C@@H]1CSSC[C@@H]2NC(=O)[C@H](CC(=O)O)NC(=O)[C@H](CC(=O)O)NC(=O)[C@H](Cc3c[nH]cn3)NC(=O)[C@H]([C@@H](C)O)NC(=O)[C@H](CCC(=O)O)NC(=O)[C@@H]3CSSC[C@H](NC(=O)[C@H]([C@@H](C)O)NC(=O)[C@H](CCC(N)=O)NC(=O)[C@H](CSSC[C@H](NC(=O)[C@@H](NC(=O)[C@@H]4CCCN4C(=O)[C@H](CC(=O)O)NC(=O)[C@H](C)NC(=O)[C@@H](N)Cc4c[nH]cn4)[C@@H](C)CC)C(=O)N[C@@H](CC(N)=O)C(=O)N[C@@H](CCCCN)C(=O)N4CCC[C@H]4C(=O)N3)NC(=O)[C@H](Cc3ccccc3)NC(=O)[C@H](Cc3c[nH]c4ccccc34)NC(=O)[C@H](C)NC(=O)CNC(=O)[C@H](CO)NC2=O)C(=O)N[C@@H](Cc2ccc(O)cc2)C(=O)N[C@@H](Cc2ccc(O)cc2)C(=O)N[C@@H](C)C(=O)N[C@@H]([C@@H](C)O)C(=O)N[C@@H](Cc2c[nH]c3ccccc23)C(=O)N[C@@H](CO)C(=O)N1)C(=O)N[C@@H](CC(=O)O)C(N)=O [1A8.K11E] (H-HADPICNKPCETHDDCSGAWFCQTCYYATWSCGWGLRQID-NH2; disulfide 6-22, 10-25, 16-32) | 1 ± 0.3 nM | – | – | –
CC[C@H](C)[C@H](NC(=O)[C@@H]1CCCN1C(=O)[C@H](CC(=O)O)NC(=O)[C@H](C)NC(=O)[C@@H](N)Cc1c[nH]cn1)C(=O)N[C@H]1CSSC[C@@H]2NC(=O)[C@H](Cc3ccccc3)NC(=O)[C@H](Cc3c[nH]c4ccccc34)NC(=O)[C@H](C)NC(=O)CNC(=O)[C@H](CO)NC(=O)[C@@H]3CSSC[C@@H](C(=O)N[C@@H](CCC(N)=O)C(=O)N[C@@H](Cc4c[nH]c5ccccc45)C(=O)N4CCC[C@H]4C(=O)N4CCC[C@H]4C(=O)N[C@@H](CCCNC(=N)N)C(=O)N[C@@H](Cc4c[nH]cn4)C(=O)N[C@@H](CCCNC(=N)N)C(=O)N[C@@H](CC(=O)O)C(N)=O)NC(=O)[C@H](CO)NC(=O)[C@H](Cc4c[nH]c5ccccc45)NC(=O)[C@H]([C@@H](C)O)NC(=O)[C@H](C)NC(=O)[C@H](Cc4ccc(O)cc4)NC(=O)[C@H](Cc4ccc(O)cc4)NC(=O)[C@H](CSSC[C@H](NC(=O)[C@@H]4CCCN4C(=O)[C@H](CCCCN)NC(=O)[C@H](CC(N)=O)NC1=O)C(=O)N[C@@H](CCCCN)C(=O)N[C@@H]([C@@H](C)O)C(=O)N[C@@H](Cc1c[nH]cn1)C(=O)N[C@@H](CC(=O)O)C(=O)N[C@@H](CC(=O)O)C(=O)N3)NC(=O)[C@H]([C@@H](C)O)NC(=O)[C@H](CCC(N)=O)NC2=O [2D5] (H-HADPICNKPCKTHDDCSGAWFCQTCYYATWSCQWPPRHRD-NH2; disulfide 6-22, 10-25, 16-32) | – | 1.0 ± 0.1 s-1 x10-4 | 10.5 ± 0.9 M-1 s-1 x104 | 0.94 ± 0.12 nM
CC[C@H](C)[C@H](NC(=O)[C@@H]1CCCN1C(=O)[C@H](CC(=O)O)NC(=O)[C@H](C)NC(=O)[C@@H](N)Cc1c[nH]cn1)C(=O)N[C@H]1CSSC[C@@H]2NC(=O)[C@H](Cc3ccccc3)NC(=O)[C@H](Cc3c[nH]c4ccccc34)NC(=O)[C@H](C)NC(=O)CNC(=O)[C@H](CO)NC(=O)[C@@H]3CSSC[C@@H](C(=O)NCC(=O)N4CCC[C@H]4C(=O)NCC(=O)N[C@@H](CCCNC(=N)N)C(=O)N[C@@H](Cc4ccc(O)cc4)C(N)=O)NC(=O)[C@H](CO)NC(=O)[C@H](Cc4c[nH]c5ccccc45)NC(=O)[C@H]([C@@H](C)O)NC(=O)[C@H](C)NC(=O)[C@H](Cc4ccc(O)cc4)NC(=O)[C@H](Cc4ccc(O)cc4)NC(=O)[C@H](CSSC[C@H](NC(=O)[C@@H]4CCCN4C(=O)[C@H](CCCCN)NC(=O)[C@H](CC(N)=O)NC1=O)C(=O)N[C@@H](CCCCN)C(=O)N[C@@H]([C@@H](C)O)C(=O)N[C@@H](Cc1c[nH]cn1)C(=O)N[C@@H](CC(=O)O)C(=O)N[C@@H](CC(=O)O)C(=O)N3)NC(=O)[C@H](C)NC(=O)[C@H](CCC(N)=O)NC2=O [1C10] (H-HADPICNKPCKTHDDCSGAWFCQACYYATWSCGPGRY-NH2; disulfide 6-22, 10-25, 16-32) | – | 4.7 ± 0.1 s-1 x10-4 | 7.7 ± 2.4 M-1 s-1 x104 | 6.5 ± 2.2 nM
CC[C@H](C)[C@H](NC(=O)[C@@H]1CCCN1C(=O)[C@H](CC(=O)O)NC(=O)[C@H](C)NC(=O)[C@@H](N)Cc1c[nH]cn1)C(=O)N[C@H]1CSSC[C@@H]2NC(=O)[C@H](Cc3ccccc3)NC(=O)[C@H](Cc3c[nH]c4ccccc34)NC(=O)[C@H](C)NC(=O)CNC(=O)[C@H](CO)NC(=O)[C@@H]3CSSC[C@@H](C(=O)NCC(=O)N4CCC[C@H]4C(=O)N[C@@H](Cc4ccc(O)cc4)C(=O)N[C@H](C(=O)NCC(N)=O)C(C)C)NC(=O)[C@H](CCCNC(=N)N)NC(=O)[C@H](Cc4c[nH]c5ccccc45)NC(=O)[C@H](CC(N)=O)NC(=O)[C@H](C)NC(=O)[C@H](Cc4ccccc4)NC(=O)[C@H](Cc4ccc(O)cc4)NC(=O)[C@H](CSSC[C@H](NC(=O)[C@@H]4CCCN4C(=O)[C@H](CCCCN)NC(=O)[C@H](CC(N)=O)NC1=O)C(=O)N[C@@H](CCCCN)C(=O)N[C@@H]([C@@H](C)O)C(=O)N[C@@H](Cc1c[nH]cn1)C(=O)N[C@@H](CC(=O)O)C(=O)N[C@@H](CC(=O)O)C(=O)N3)NC(=O)[C@H](C)NC(=O)[C@H](CCC(N)=O)NC2=O [3A7] (H-HADPICNKPCKTHDDCSGAWFCQACYFANWRCGPYVG-NH2; disulfide 6-22, 10-25, 16-32) | – | 2.8 ± 0.2 s-1 x10-4 | 4.5 ± 0.3 M-1 s-1 x104 | 6.2 ± 0.2 nM
CC[C@H](C)[C@H](NC(=O)[C@@H]1CCCN1C(=O)[C@H](CC(=O)O)NC(=O)[C@H](C)NC(=O)[C@@H](N)Cc1c[nH]cn1)C(=O)N[C@H]1CSSC[C@@H]2NC(=O)[C@H](Cc3ccccc3)NC(=O)[C@H](Cc3c[nH]c4ccccc34)NC(=O)[C@H](C)NC(=O)CNC(=O)[C@H](CO)NC(=O)[C@@H]3CSSC[C@@H](C(=O)NCC(=O)N4CCC[C@H]4C(=O)NCC(=O)N[C@@H](Cc4c[nH]c5ccccc45)C(=O)N[C@@H](CCCNC(=N)N)C(N)=O)NC(=O)[C@H](CO)NC(=O)[C@H](Cc4c[nH]c5ccccc45)NC(=O)[C@H]([C@@H](C)O)NC(=O)[C@H](C)NC(=O)[C@H](Cc4ccc(O)cc4)NC(=O)[C@H](Cc4ccc(O)cc4)NC(=O)[C@H](CSSC[C@H](NC(=O)[C@@H]4CCCN4C(=O)[C@H](CCCCN)NC(=O)[C@H](CC(N)=O)NC1=O)C(=O)N[C@@H](CCCCN)C(=O)N[C@@H]([C@@H](C)O)C(=O)N[C@@H](Cc1c[nH]cn1)C(=O)N[C@@H](CC(=O)O)C(=O)N[C@@H](CC(=O)O)C(=O)N3)NC(=O)[C@H](C)NC(=O)[C@H](CCC(N)=O)NC2=O [1A7] (H-HADPICNKPCKTHDDCSGAWFCQACYYATWSCGPGWR-NH2; disulfide 6-22, 10-25, 16-32) | – | 6.5 ± 0.7 s-1 x10-4 | 9.4 ± 1.3 M-1 s-1 x104 | 7 ± 0.5 nM
